Where two headings read alike, the source gives them in different places.
Test: Acute toxicity, single intravenous injection, LD50 (Bliss method) in Kunming mice
Assay type: in vivo
Settings: for Dead animals on each day after the single intravenous injection (c3-c11 = day 1-9, c12 = day 10-14): 163.8 mg/kg; for LD50 at 2 weeks: Kunming, mouse, in vivo, iv
Experimental: To evaluate the in vivo acute, intravenous toxicity of DBTS and ACEA100108 (a derivative of DBTS, see Table 33), the experiments were performed in non-tumor bearing, normal Kunming mice by monitoring the acute response of mice to a single dose of DBTS or ACEA100108 via intravenous injection (i.v.). The number of death for the treated mice was monitored and recorded. LD50 values for these compounds were calculated. Details of the study are provided below.
The experiments to test DBTS and ACEA100108 acute toxicity were performed in mice. The test mice were randomly divided into six groups (five dosing groups and one control group). Each group contained 20 Kunming strain mice, and among them, 50% were male and 50% were female. After administration of a single dose of DBTS or ACEA100108 via intravenous injection (i.v.), the acute response to DBTS or ACEA100108 compound, and the death of the treated mice during the first two weeks were monitored and recorded. The LD50 value was calculated using the Bliss method.
Materials and Method. The test chemical compound were DBTS and ACEA100108, which were dissolved into hydrogenated castor oil in the pre-warmed water bath and made as a 20 mg/ml solution. The solution was further diluted to desired experiment concentrations with the normal saline. The administration volume was 0.5 ml i.v. per mouse and the injection speed was 0.5 ml/0.5 min.
The experimental mice were Kunming strain, provided by the Experimental Animal Department, Shanghai Pharmaceutical Industry Institute. The certificate number of the facility was Animal Facility Certification Number 107. The average weight of the mice was 18-20 gram. Each test group contained 20 Kunming strain mice, and among them, 10 mice were male and 10 mice were female. […] The mice in the control group were only given the same volume of the solvent, which were diluted hydrogenated castor oil. All the testing mice were given a single intravenous injection of DBTS, ACEA100108, or the solvent that served as the control at the injection speed of 0.5 ml/0.5 min. The acute response to DBTS, ACEA100108 or the solvent immediately after the administration, as well as weight change, and the death within the first two weeks of the administration were monitored and recorded. The intravenous injection LD50 values in mice were calculated using the Bliss method.

[1] = female, 163.8 mg/kg single i.v.
[2] = female, 204.8 mg/kg single i.v.

In the case of `c1ccc(CSSSCc2ccccc2)cc1` [DBTS, Dibenzyl trisulfide], the “Percentage of dead animals %” value (50% male, 50% female, 163.8 mg/kg single i.v.) is reported as 0%, the “Dead animals on each day after the single intravenous injection (c3-c11 = day 1-9, c12 = day 10-14)” value (shortened to “Dead animals on each day”) (50% male, 50% female, 20 animals, deaths on day 8 after injection) is reported as 0 and the “Dead animals on each day” value (50% male, 50% female, 20 animals, deaths on days 10-14 after injection) is reported as 0 - - - 0. The “Percentage of dead animals %” value (50% male, 50% female, 204.8 mg/kg single i.v.) was 15%, the “Percentage of dead animals %” value (50% male, 50% female, 256 mg/kg single i.v.) was 45% and the “Percentage of dead animals %” value (50% male, 50% female, 320 mg/kg single i.v.) was 85%. The “Percentage of dead animals %” value (50% male, 50% female, 400 mg/kg single i.v.) was 100%, the “mouse single i.v. dose LD50, interval in parentheses” value (Kunming mice, 50% male 50% female, Bliss method) was 234.96 to 284.56 mg/kg and the LD50 at 2 weeks (both sexes, 50% male, 50% female Kunming mice, single i.v., read-out: LD50) was 259 mg/kg. The LD50 at 2 weeks (both sexes, 50% male, 50% female Kunming mice, single i.v., read-out: LD50 (95% CL)) was 235 to 284 mg/kg, the LD50 at 2 weeks (both sexes, Kunming mice, 50% male 50% female, Bliss method, read-out: mouse single i.v. dose LD50, interval in parentheses) was 235 to 284 mg/kg and the LD50 at 2 weeks (both sexes, Kunming mice, 50% male 50% female, Bliss method, read-out: mouse single i.v. dose LD50 value) was 259 mg/kg. For the same compound, the “Average animal weight (g) Beginning” value [1] was 19.9 g, the “Average animal weight (g) End” value [1] was 24.5 g and the “Percentage of dead animals %” value [1] was 0%. The “Dead animals on each day” value (female, 10 animals, deaths on day 8 after injection) was 0, the “Dead animals on each day” value (female, 10 animals, deaths on days 10-14 after injection) was 0 - - - 0 and the “Average animal weight (g) Beginning” value [2] was 20.5 g. The “Percentage of dead animals %” value [2] was 20%, the “Average animal weight (g) End” value (female, 204.8 mg/kg single i.v., survivors) was 24.3 g and the “Average animal weight (g) Beginning” value (female, 256 mg/kg single i.v.) was 19.9 g. For the same compound, the “Percentage of dead animals %” value (female, 256 mg/kg single i.v.) was 50%, the “Average animal weight (g) End” value (female, 256 mg/kg single i.v., survivors) was 24.2 g and the “Average animal weight (g) Beginning” value (female, 320 mg/kg single i.v.) was 20.6 g. The “Percentage of dead animals %” value (female, 320 mg/kg single i.v.) was 80%, the “Average animal weight (g) End” value (female, 320 mg/kg single i.v., survivors) was 24.5 g and the “Average animal weight (g) Beginning” value (female, 400 mg/kg single i.v.) was 19.8 g. For the same compound, the “Percentage of dead animals %” value (female, 400 mg/kg single i.v.) was 100%, the LD50 at 2 weeks (female, female Kunming mice, single i.v., read-out: LD50) was 256 mg/kg and the LD50 at 2 weeks (female, female Kunming mice, single i.v., read-out: LD50 (95% CL)) was 222 to 296 mg/kg. The “Average animal weight (g) Beginning” value (male, 163.8 mg/kg single i.v.) was 20.0 g, the “Average animal weight (g) End” value (male, 163.8 mg/kg single i.v.) was 26.9 g and the “Percentage of dead animals %” value (male, 163.8 mg/kg single i.v.) was 0%. The “Dead animals on each day” value (male, 10 animals, deaths on day 8 after injection) was 0, the “Dead animals on each day” value (male, 10 animals, deaths on days 10-14 after injection) was 0 - - - 0 and the “Average animal weight (g) Beginning” value (male, 204.8 mg/kg single i.v.) was 19.9 g. The “Percentage of dead animals %” value (male, 204.8 mg/kg single i.v.) was 10%, the “Average animal weight (g) End” value (male, 204.8 mg/kg single i.v., survivors) was 26.6 g and the “Average animal weight (g) Beginning” value (male, 256 mg/kg single i.v.) was 20.4 g. For the same compound, the “Percentage of dead animals %” value (male, 256 mg/kg single i.v.) was 40%, the “Average animal weight (g) End” value (male, 256 mg/kg single i.v., survivors) was 26.3 g and the “Average animal weight (g) Beginning” value (male, 320 mg/kg single i.v.) was 20.1 g. The “Percentage of dead animals %” value (male, 320 mg/kg single i.v.) was 90%, the “Average animal weight (g) End” value (male, 320 mg/kg single i.v., survivors) was 25.0 g and the “Average animal weight (g) Beginning” value (male, 400 mg/kg single i.v.) was 20.1 g. The “Percentage of dead animals %” value (male, 400 mg/kg single i.v.) was 100%, the LD50 at 2 weeks (male, male Kunming mice, single i.v., read-out: LD50) was 261 mg/kg and the LD50 at 2 weeks (male, male Kunming mice, single i.v., read-out: LD50 (95% CL)) was 230 to 296 mg/kg.

Reference: patent publication US8334316B2, “Substituted organosulfur compounds and methods of using thereof” (ACEA Biosciences, Inc., priority 2004, dated 2012)
